Assay results as given in patent US9670519B2, “Methods for reducing accumulation of lactate during culturing and method for producing polypeptide” (Biocon Limited, priority 2011, dated 2017).
Where two headings read alike, the source gives them in different places.

Experiments:
[1] = system: Chinese Hamster Ovary (CHO) cells genetically engineered to produce the Anti VEGF-A antibody; conditions: for Residual Lactate: fedbatch; for further reduction in the accumulation of lactate in presence of said salt (versus control) / reduction of the accumulation of lactate in the media with the added salt: over the run till 7th day
Experimental: (§1) In another embodiment of the present disclosure, the level of lactate in the medium is analyzed using the device YSI 7100 MBS Analyzer.
(§2) The level of lactate is analyzed for all the following experiments in the below examples by the use of the YSI 7100 MBS Analyzer. The pH for all the below experiments as recited in the following examples are maintained between pH 6.85-7.2. The level of Oxygen is also maintained by the oxygen levels are maintained by agitation in the shaker incubator. In all the below mentioned examples, the concentration of the added salt is the concentration of the salt as present in the medium. The temperature can be suitably varied, based on the nature of the cells used and other related parameters.
(§3) The cell culturing was performed in fedbatch mode. In the cell culture, the mammalian host cells used were Chinese Hamster Ovary (CHO) cells and HyClone CDM4NS0 culture medium was supplied initially. The CHO cells were genetically engineered to produce the Anti VEGF-A antibody. The copper sulphate pentahydrate salt was added in the medium at a concentration of 0.4 mM. In contrast, there was no addition of any copper salt in the control medium. The production fermentation run started with an initial cell count of 0.3-0.45×10^6 cells/ml at 37±1° C., the first 3-4 days were dedicated to grow the cells in batch phase. In the next step, the temperature is lowered to 31+/−1° C. and the run is continued till 7th day. […] The produced Anti VEGF-A antibody was then collected from the media using the technique of Affinity Chromatography.
as §3, with “fedbatch.” for “fedbatch mode.”, “zinc” for “copper”, “hepta hydrate” for “pentahydrate”
as §3, with “fedbatch mode is employed.” for “fedbatch mode.”, “VEGF-A Antibody.” for “VEGF-A antibody.”, “salt is also” for “salt was”, “of 0.2” for “of 0.4”, “to 31±1°” for “to 31+/−1°”, “VEGF-A Antibody” for “VEGF-A antibody”
The cell culturing was performed in fedbatch mode. In the cell culture, the mammalian host cell used were Chinese Hamster Ovary (CHO) cells and HyClone CDM4NS0 culture medium was supplied initially. The CHO cells were genetically engineered to produce the Anti VEGF-A Antibody. The zinc sulphate hepta hydrate salt is also added in the medium at a concentration of 0.2 mM. In contrast, there was no addition of any zinc salt in the control medium.

[2] = system: Chinese Hamster Ovary (CHO) cells genetically engineered to produce the Anti Her-2 antibody; conditions: for Residual Lactate: salt 0.4 mM in HyClone CDM4NS0 medium, fedbatch; for further reduction in the accumulation of lactate in presence of said salt (versus control) / reduction of the accumulation of lactate in the media with the added salt: salt 0.4 mM, over the run till 7th day
Experimental: as §1, §2
as §3, with “Her-2” for “VEGF-A”
as §3, with “Her-2” for “VEGF-A”, “zinc” for “copper”, “hepta hydrate” for “pentahydrate”

[3] = system: Chinese Hamster Ovary (CHO) cells genetically engineered to produce the Anti CD6 Antibody; conditions: for Residual Lactate: salt 0.4 mM in HyClone CDM4NS0 medium, fedbatch
Experimental: as §1, §2
(§4) The cell culturing was performed in fedbatch mode. In the cellculture, the mammalian host cells used were Chinese Hamster Ovary (CHO) cells and HyClone CDM4NS0 culture medium was supplied initially. The CHO cells were genetically engineered to produce the Anti CD6 Antibody. The zinc sulphate hepta hydrate salt is added in the medium at a concentration of 0.4 mM. In contrast, there was no addition of any zinc salt in the control medium. The production fermentation run started with an initial cell count of 0.3-0.45×10^6 cells/ml at 37±1° C., the first 3-4 days were dedicated to grow the cells in batch phase. In the next step, the temperature is lowered to 31±1° C. and the run is continued till 7th day. […] The produced Anti CD6 Antibody was then collected from the media using the technique of Affinity Chromatography.

[4] = system: Chinese Hamster Ovary (CHO) cells genetically engineered to produce the Anti TNF antibody; conditions: for Residual Lactate: salt 0.4 mM in HyClone CDM4NS0 medium, fedbatch; for further reduction in the accumulation of lactate in presence of said salt (versus control) / reduction of the accumulation of lactate in the media with the added salt: salt 0.4 mM, over the run till 7th day
Experimental: as §1, §2
as §3, with “Anti TNF” for “Anti VEGF-A”, “salt is also” for “salt was”, “to 31±1°” for “to 31+/−1°”
as §4, with “performed in a fedbatch mode.” for “performed in fedbatch mode.”, “In the cell culture, the mammalian” for “In the cellculture, the mammalian”, “the Anti TNF antibody. The zinc” for “the Anti CD6 Antibody. The zinc”, “salt is also added in” for “salt is added in”, “produced Anti TNF antibody was then” for “produced Anti CD6 Antibody was then”

[5] = salt 0.2 mM in HyClone CDM4NS0 medium, age 72 hours
[6] = salt 0.2 mM in HyClone CDM4NS0 medium, age 96 hours
[7] = salt 0.2 mM in HyClone CDM4NS0 medium, age 120 hours
[8] = salt 0.2 mM in HyClone CDM4NS0 medium, age 144 hours
[9] = salt 0.2 mM in HyClone CDM4NS0 medium, age 168 hours
[10] = salt 0.4 mM in HyClone CDM4NS0 medium, age 72 hours
[11] = salt 0.4 mM in HyClone CDM4NS0 medium, age 96 hours
[12] = salt 0.4 mM in HyClone CDM4NS0 medium, age 120 hours
[13] = salt 0.4 mM in HyClone CDM4NS0 medium, age 144 hours
[14] = salt 0.4 mM in HyClone CDM4NS0 medium, age 168 hours
[15] = salt 0.4 mM, over the run till 7th day

| SMILES | Residual Lactate [1, 5] [mM] | Residual Lactate [1, 6] [mM] | Residual Lactate [1, 7] [mM] | Residual Lactate [1, 8] [mM] | Residual Lactate [1, 9] [mM] | further reduction in the accumulation of lactate in presence of said salt (versus control) ([1]; salt 0.2 mM) | reduction of the accumulation of lactate in the media with the added salt ([1]; salt 0.2 mM) | Residual Lactate [1, 10] [mM] | Residual Lactate [1, 11] [mM] | Residual Lactate [1, 12] [mM] | Residual Lactate [1, 13] [mM] | Residual Lactate [1, 14] [mM] | further reduction in the accumulation of lactate in presence of said salt (versus control) ([1]; salt 0.4 mM) | reduction of the accumulation of lactate in the media with the added salt ([1]; salt 0.4 mM) | Residual Lactate ([2]; age 72 hours) [mM] | Residual Lactate ([2]; age 96 hours) [mM] | Residual Lactate ([2]; age 120 hours) [mM] | Residual Lactate ([2]; age 144 hours) [mM] | Residual Lactate ([2]; age 168 hours) [mM] | further reduction in the accumulation of lactate in presence of said salt (versus control) [2] | further results |
| --- | --- | --- | --- | --- | --- | --- | --- | --- | --- | --- | --- | --- | --- | --- | --- | --- | --- | --- | --- | --- | --- |
| O.O.O.O.O.O.O.O=S(=O)([O-])[O-].[Zn+2] [Zinc salt, zinc sulphate hepta hydrate] | 23.3 | 16.3 | 10 | 5.9 | 3.4 | about 9.18% | about 88.41% | 16.6 | 14.7 | 7.6 | 6.2 | 4.5 | about 11.57% | about 72.89% | 16 | 11.8 | 7.4 | 6.9 | 5.6 | about 30.38% | reduction of the accumulation of lactate in the media with the added salt [2]: about 64.88%; Residual Lactate ([3]; age 72 hours): 18 mM; Residual Lactate ([3]; age 96 hours): 11.2 mM; Residual Lactate ([3]; age 120 hours): 6.2 mM; Residual Lactate ([3]; age 144 hours): 3 mM; Residual Lactate ([3]; age 168 hours): 3.2 mM; further reduction in the accumulation of lactate in presence of said salt (versus control) [3, 15]: about 11.67%; reduction of the accumulation of lactate in the media with the added salt [3, 15]: about 82.22%; Residual Lactate ([4]; age 96 hours): 19.6 mM; Residual Lactate ([4]; age 120 hours): 16.4 mM; Residual Lactate ([4]; age 144 hours): 13.8 mM; Residual Lactate ([4]; age 168 hours): 15 mM; further reduction in the accumulation of lactate in presence of said salt (versus control) [4]: about 6.09%; reduction of the accumulation of lactate in the media with the added salt [4]: about 23.46% |
| O.O.O.O.O.O=S(=O)([O-])[O-].[Cu+2] [Copper salt, copper sulphate pentahydrate] | 23.3 | 14.9 | 7.9 | 5.8 | 2.7 | about 6.17% | about 85.40% | 16 | 14.8 | 5.9 | 3.4 | 2 | about 26.5% | about 87.5% | 16 | 11.8 | 7.4 | 6.9 | 5.6 | about 14.5% | reduction of the accumulation of lactate in the media with the added salt [2]: about 65%; Residual Lactate ([4]; age 72 hours): 20.4 mM; Residual Lactate ([4]; age 96 hours): 20.3 mM; Residual Lactate ([4]; age 120 hours): 16.3 mM; Residual Lactate ([4]; age 144 hours): 13.2 mM; Residual Lactate ([4]; age 168 hours): 14.6 mM; further reduction in the accumulation of lactate in presence of said salt (versus control) [4]: about 13.05%; reduction of the accumulation of lactate in the media with the added salt [4]: about 28.43% |
